This passage reports IC50 results from patent US10526327B2, “Histone demethylase inhibitors” (CELGENE QUANTICEL RESEARCH, INC., priority 2013, dated 2020).

Bounds are passed on as bounds.

The test has as its target T1, JMJD2C (Homo sapiens, UniProt Q9H3R0).
T1 construct: purchased BPS Bioscience 50105
T1 sequence (Q9H3R0 2-372): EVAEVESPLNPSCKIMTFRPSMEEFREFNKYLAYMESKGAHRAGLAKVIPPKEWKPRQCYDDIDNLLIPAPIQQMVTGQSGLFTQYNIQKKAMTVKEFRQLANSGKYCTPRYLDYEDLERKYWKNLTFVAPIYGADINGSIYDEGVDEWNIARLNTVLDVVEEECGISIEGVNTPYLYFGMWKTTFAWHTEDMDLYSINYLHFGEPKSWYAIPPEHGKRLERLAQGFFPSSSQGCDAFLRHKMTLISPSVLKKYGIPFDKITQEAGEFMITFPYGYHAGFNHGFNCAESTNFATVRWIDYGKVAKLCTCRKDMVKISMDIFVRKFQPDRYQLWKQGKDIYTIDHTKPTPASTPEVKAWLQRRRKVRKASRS
The test can be described thus: JMJD2C in vitro enzyme inhibition assay (TR-FRET). The format is biochemical. In outline:
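Baculovirus-expressed human JMJD2C (AA 2-372) at 0.3 nM demethylated 300 nM biotin-H3K9me3 peptide with 2 μM alpha-ketoglutarate in HEPES pH 7.3 containing ascorbate and Fe(II), 30 min at room temperature. EDTA-stopped product was read by TR-FRET with Eu-anti-H3K9me2 and streptavidin-APC; 665/615 ratios from 11-point dilutions gave IC50.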
Take `N#CCC(=O)N1CC[C@@H](n2cc(Oc3nc(O)c4ccncc4n3)cn2)C1` [Example 130, 3-[(3R)-3-[4-({4-hydroxypyrido[3,4-d]pyrimidin-2-yl}oxy)-1H-pyrazol-1-yl]pyrrolidin-1-yl]-3-oxopropanenitrile]: the IC50 was at most 100 nM.

In turn, `Oc1nc(OCc2cccc(Cl)c2Cl)nc2cnccc12` [Example 173, 2-[(2,3-dichlorophenyl)methoxy]pyrido[3,4-d]pyrimidin-4-ol] registered an IC50 of at most 100 nM.

The compound `CCC(C)COc1nc(O)c2ccncc2n1` (stereo not shown) [Example 16, 2-(2-methylbutoxy)pyrido[3,4-d]pyrimidin-4-ol] had an IC50 of 100 to 1000 nM.

`CC(=O)N1CCC[C@H](n2cc(Oc3nc(O)c4ccncc4n3)cn2)C1` [Example 164, 1-[(3S)-3-[4-({4-hydroxypyrido[3,4-d]pyrimidin-2-yl}oxy)-1H-pyrazol-1-yl]piperidin-1-yl]ethan-1-one] returned an IC50 of at most 100 nM.

`Oc1nc(Oc2cnn(Cc3ccccc3Cl)c2)nc2cnccc12` [Example 121, 2-({1-[(2-chlorophenyl)methyl]-1H-pyrazol-4-yl}oxy)pyrido[3,4-d]pyrimidin-4-ol] displayed an IC50 of at most 100 nM.

Take `Oc1nc(Oc2cnn([C@@H]3CCN(c4ccc(F)cc4)C3)c2)nc2cnccc12` [Example 134, 2-({1-[(3R)-1-(4-fluorophenyl)pyrrolidin-3-yl]-1H-pyrazol-4-yl}oxy)pyrido[3,4-d]pyrimidin-4-ol]: the IC50 was at most 100 nM.

On to `O=C(C1CC1)N1CC[C@H](n2cc(Oc3nc(O)c4ccncc4n3)cn2)C1` [Example 141, 2-({1-[(3S)-1-cyclopropanecarbonylpyrrolidin-3-yl]-1H-pyrazol-4-yl}oxy)pyrido[3,4-d]pyrimidin-4-ol], for which the concentration for half-maximal inhibition (IC50) is at most 100 nM.

`Oc1nc(Oc2cnn([C@H]3CCCNC3)c2)nc2cnccc12` [Example 160, 2-({1-[(3S)-piperidin-3-yl]-1H-pyrazol-4-yl}oxy)pyrido[3,4-d]pyrimidin-4-ol] displayed an IC50 of at most 100 nM.

Regarding `Oc1nc(Oc2cnn([C@@H]3CCCNC3)c2)nc2cnccc12` [Example 149, 2-({1-[(3R)-piperidin-3-yl]-1H-pyrazol-4-yl}oxy)pyrido[3,4-d]pyrimidin-4-ol], the half-inhibitory concentration (IC50) is at most 100 nM.

With `O=C(c1ccccc1)N1CCC[C@H](n2cc(Oc3nc(O)c4ccncc4n3)cn2)C1` [Example 167, 2-({1-[(3S)-1-benzoylpiperidin-3-yl]-1H-pyrazol-4-yl}oxy)pyrido[3,4-d]pyrimidin-4-ol], the IC50 was at most 100 nM.

As for `COCCOc1nc(O)c2ccncc2n1` [Example 22, 2-(2-methoxyethoxy)pyrido[3,4-d]pyrimidin-4-ol], the IC50 fell in the range of 100 to 1000 nM.

As for `CC(C)CCOc1nc(O)c2ccncc2n1` [Example 15, 2-(3-methylbutoxy)pyrido[3,4-d]pyrimidin-4-ol], the IC50 was 100 to 1000 nM.

`O=C(c1ccccc1)N1CC[C@@H](n2cc(Oc3nc(O)c4ccncc4n3)cn2)C1` [Example 132, 2-({1-[(3R)-1-benzoylpyrrolidin-3-yl]-1H-pyrazol-4-yl}oxy)pyrido[3,4-d]pyrimidin-4-ol]: the IC50 was at most 100 nM.

`CCS(=O)(=O)N1CCC[C@H](n2cc(Oc3nc(O)c4ccncc4n3)cn2)C1` [Example 161, 2-({1-[(3S)-1-(ethanesulfonyl)piperidin-3-yl]-1H-pyrazol-4-yl}oxy)pyrido[3,4-d]pyrimidin-4-ol] showed a half-maximal inhibitory concentration (IC50) of at most 100 nM.

Compound `O=S(=O)(c1ccccc1)N1CC[C@H](n2cc(Oc3nc(O)c4ccncc4n3)cn2)C1` [Example 138, 2-({1-[(3S)-1-(benzenesulfonyl)pyrrolidin-3-yl]-1H-pyrazol-4-yl}oxy)pyrido[3,4-d]pyrimidin-4-ol] had an IC50 of at most 100 nM.

`Oc1nc(Oc2cnn([C@H]3CCN(c4ccccc4F)C3)c2)nc2cnccc12` [Example 147, 2-({1-[(3S)-1-(2-fluorophenyl)pyrrolidin-3-yl]-1H-pyrazol-4-yl}oxy)pyrido[3,4-d]pyrimidin-4-ol] showed an IC50 of at most 100 nM.

The compound `Oc1nc(Oc2cnn(Cc3cccc(Cl)c3)c2)nc2cnccc12` [Example 122, 2-({1-[(3-chlorophenyl)methyl]-1H-pyrazol-4-yl}oxy)pyrido[3,4-d]pyrimidin-4-ol] had an IC50 of at most 100 nM.

The compound `Cn1cnc(-c2nccc3c(O)nc(O[C@@H](c4ccccc4)C(F)(F)F)nc23)c1` [Example 109, 8-(1-methyl-1H-imidazol-4-yl)-2-[(1S)-2,2,2-trifluoro-1-phenylethoxy]pyrido[3,4-d]pyrimidin-4-ol] registered an IC50 of 100 to 1000 nM.

`Oc1nc(OCCCC(F)(F)F)nc2cnccc12` [Example 20, 2-(4,4,4-trifluorobutoxy)pyrido[3,4-d]pyrimidin-4-ol] displayed an IC50 of 100 to 1000 nM.

`C[C@H](c1ccccc1F)n1cc(Oc2nc(O)c3ccncc3n2)cn1` [Example 119, 2-({1-[(1R)-1-(2-fluorophenyl)ethyl]-1H-pyrazol-4-yl}oxy)pyrido[3,4-d]pyrimidin-4-ol] registered an IC50 of at most 100 nM.

The compound `Cn1cnc(-c2nccc3c(O)nc(O[C@H](c4ccccc4)C(F)(F)F)nc23)c1` [Example 108, 8-(1-methyl-1H-imidazol-4-yl)-2-[(1R)-2,2,2-trifluoro-1-phenylethoxy]pyrido[3,4-d]pyrimidin-4-ol] displayed a half-maximal inhibitory concentration (IC50) of 100 to 1000 nM.

`C[C@@H](c1ccccc1F)n1cc(Oc2nc(O)c3ccncc3n2)cn1` [Example 120, 2-({1-[(1s)-1-(2-fluorophenyl)ethyl]-1H-pyrazol-4-yl}oxy)pyrido[3,4-d]pyrimidin-4-ol] had an IC50 of at most 100 nM.

Take `O=S(=O)(C1CC1)N1CC[C@@H](n2cc(Oc3nc(O)c4ccncc4n3)cn2)C1` [Example 127, 2-({1-[(3R)-1-(cyclopropanesulfonyl)pyrrolidin-3-yl]-1H-pyrazol-4-yl}oxy)pyrido[3,4-d]pyrimidin-4-ol]: the IC50 is at most 100 nM.

In the case of `O=C(c1ccccc1)N1CC[C@H](n2cc(Oc3nc(O)c4ccncc4n3)cn2)C1` [Example 142, 2-({1-[(3S)-1-benzoylpyrrolidin-3-yl]-1H-pyrazol-4-yl}oxy)pyrido[3,4-d]pyrimidin-4-ol], the IC50 is at most 100 nM.

Turning to `CCS(=O)(=O)N1CCC[C@@H](n2cc(Oc3nc(O)c4ccncc4n3)cn2)C1` [Example 150, 2-({1-[(3R)-1-(ethanesulfonyl)piperidin-3-yl]-1H-pyrazol-4-yl}oxy)pyrido[3,4-d]pyrimidin-4-ol], the IC50 was at most 100 nM.

On to `N#CCC(=O)N1CC[C@H](n2cc(Oc3nc(O)c4ccncc4n3)cn2)C1` [Example 140, 3-[(3S)-3-[4-({4-hydroxypyrido[3,4-d]pyrimidin-2-yl}oxy)-1H-pyrazol-1-yl]pyrrolidin-1-yl]-3-oxopropanenitrile], for which the half-maximal inhibitory concentration (IC50) is at most 100 nM.

For the compound `CC(Cc1ccccc1)Oc1nc(O)c2ccncc2n1` (stereo not shown) [Example 19, 2-(1-phenylpropan-2-yloxy)pyrido[3,4-d]pyrimidin-4-ol], the IC50 is 1000 to 10000 nM.

Compound `CCS(=O)(=O)N1CC[C@H](n2cc(Oc3nc(O)c4ccncc4n3)cn2)C1` [Example 136, 2-({1-[(3S)-1-(ethanesulfonyl)pyrrolidin-3-yl]-1H-pyrazol-4-yl}oxy)pyrido[3,4-d]pyrimidin-4-ol] yielded an IC50 of at most 100 nM.

`O=C(C1CC1)N1CCC[C@H](n2cc(Oc3nc(O)c4ccncc4n3)cn2)C1` [Example 165, 2-({1-[(3S)-1-cyclopropanecarbonylpiperidin-3-yl]-1H-pyrazol-4-yl}oxy)pyrido[3,4-d]pyrimidin-4-ol]: the IC50 was at most 100 nM.

`Oc1nc(OC(c2ccccc2)C(F)(F)F)nc2cnccc12` (stereo not shown) [Example 176, 2-(2,2,2-trifluoro-1-phenylethoxy)pyrido[3,4-d]pyrimidin-4-ol]: the IC50 is at most 100 nM.

With `Cn1cnc(-c2nccc3c(O)nc(Oc4ccc(Cl)c(Cl)c4)nc23)c1` [Example 113, 2-(3,4-dichlorophenoxy)-8-(1-methyl-1H-imidazol-4-yl)pyrido[3,4-d]pyrimidin-4-ol], the IC50 was at most 100 nM.

With `CC(=O)N1CCC[C@@H](n2cc(Oc3nc(O)c4ccncc4n3)cn2)C1` [Example 153, 1-[(3R)-3-[4-({4-hydroxypyrido[3,4-d]pyrimidin-2-yl}oxy)-1H-pyrazol-1-yl]piperidin-1-yl]ethan-1-one], the IC50 was at most 100 nM.

In turn, `CC(=O)N1CC[C@@H](n2cc(Oc3nc(O)c4ccncc4n3)cn2)C1` [Example 129, 1-[(3R)-3-[4-({4-hydroxypyrido[3,4-d]pyrimidin-2-yl}oxy)-1H-pyrazol-1-yl]pyrrolidin-1-yl]ethan-1-one] gave a half-maximal inhibitory concentration (IC50) of at most 100 nM.

In turn, `O=C(c1ccccc1)N1CCC[C@@H](n2cc(Oc3nc(O)c4ccncc4n3)cn2)C1` [Example 157, 2-({1-[(3R)-1-benzoylpiperidin-3-yl]-1H-pyrazol-4-yl}oxy)pyrido[3,4-d]pyrimidin-4-ol] returned an IC50 of at most 100 nM.

Turning to `O=S(=O)(c1ccccc1)N1CCC[C@H](n2cc(Oc3nc(O)c4ccncc4n3)cn2)C1` [Example 163, 2-({1-[(3S)-1-(benzenesulfonyl)piperidin-3-yl]-1H-pyrazol-4-yl}oxy)pyrido[3,4-d]pyrimidin-4-ol], the IC50 is at most 100 nM.

Regarding `CC(COc1nc(O)c2ccncc2n1)c1ccccc1` (stereo not shown) [Example 17, 2-(2-phenylpropoxy)pyrido[3,4-d]pyrimidin-4-ol], the IC50 lay in the range of 100 to 1000 nM.

As for `CN(C)CCCOc1nc(O)c2ccncc2n1` [Example 21, 2-[3-(dimethylamino)propoxy]pyrido[3,4-d]pyrimidin-4-ol], the IC50 was 100 to 1000 nM.
